In patent US20160251403A1, “PEPTIDE COMBINATIONS AND USES THEREOF IN TREATING DUST MITE ALLERGY” (ALK-ABELLO A/S, priority 2013, published 2016):
Positions count from the first letter of the chain named. No end group written: not given here.

What was measured:
DPA10103-DPB10201 = target: T1, DPA10103-DPB10201 (Homo sapiens, UniProt P04440+P20036, A65V/A84D/A85E/K98E); experiment: Competitive MHC class II binding assay, DPA10103-DPB10201
T1 sequence (P20036 29-260): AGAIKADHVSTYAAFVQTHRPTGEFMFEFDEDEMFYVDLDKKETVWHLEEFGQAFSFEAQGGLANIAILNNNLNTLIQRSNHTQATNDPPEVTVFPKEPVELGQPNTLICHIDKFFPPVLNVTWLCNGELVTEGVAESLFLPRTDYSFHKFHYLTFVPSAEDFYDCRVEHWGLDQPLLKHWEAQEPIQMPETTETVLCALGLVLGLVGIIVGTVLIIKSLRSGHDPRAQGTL
T1 sequence (P04440 30-258 A65V/A84D/A85E/K98E): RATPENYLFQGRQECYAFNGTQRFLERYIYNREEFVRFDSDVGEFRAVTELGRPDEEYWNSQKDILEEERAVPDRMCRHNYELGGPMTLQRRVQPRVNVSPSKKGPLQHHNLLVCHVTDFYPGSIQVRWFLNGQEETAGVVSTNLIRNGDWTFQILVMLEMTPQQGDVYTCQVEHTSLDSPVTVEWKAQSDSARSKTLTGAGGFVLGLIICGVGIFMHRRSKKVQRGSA

DRB1_0802 = DRB1_0802 (Homo sapiens, UniProt P01903+P01911, A100R/A103L/A169T/F76Y/H45Y/I96F/K41T/L162R/M171V/P40S/Q125H/Q178H/Q39Y/Q99D/R218S/R42G/S66Y/V115G/W38E); experiment: Competitive MHC class II binding assay, DRB1_0802
DRB1_0901 = DRB1_0901 (Homo sapiens, UniProt P01903+P01911, A100R/A103E/D57H/D86V/F55Y/F60I/F76Y/I96F/K127E/L162R/M171V/P40D/Q125H/Q99R/R33Q/R42F/S133A/S66N/T210M/V115G/W38K/Y107V/Y59G/Y89S); experiment: Competitive MHC class II binding assay, DRB1_0901;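 note: displacement of a radiolabeled probe peptide from purified HLA class II protein, bound counts read after two to four days incubation, six concentrations spanning 100,000-fold, unlabeled probe as reference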
DRB1_1302 = DRB1_1302 (Homo sapiens, UniProt P01903+P01911, A100E/A169T/K41T/L162R/M171V/P40S/Q125H/Q178H/Q39Y/Q99D/R42S/S66N/T262R/V115G/W38E/Y61H); experiment: Competitive MHC class II binding assay, DRB1_1302;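 note: purified HLA class II protein incubated two to four days with a radiolabeled reference binder and test peptide at six concentrations over a 100,000-fold range, complex-bound radioactivity counted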
DRB5_0101 = DRB5_0101 (Homo sapiens, UniProt P01903+Q30154); experiment: Competitive MHC class II binding assay, DRB5_0101
DQA10102-DQB10602 = experiment: Competitive MHC class II binding assay, DQA10102-DQB10602; conditions: read-out: HLA-DQA10102-DQB10602; positive binding at cutoff 1000 nM
DQA10101-DQB10501 = DQA10101-DQB10501 (Homo sapiens, UniProt P01909+P01920, A157S/A45G/A70V/C70R/D89V/E106S/E118A/E183D/E77G/F83G/G63E/H151Q/H199R/H252R/H253Q/I129T/I235V/I88M/INS77G/K197Q/L107V/L117V/L119Y/L178F/L71W/L74F/L85Q/L91A/L98M/M46L/N214S/P87R/Q116E/Q256R/Q57E/Q76K/R102G/R240Q/R75S/R78G/S102Y/S185I/S41F/S97I/T103A/T109R/T121G/T122I/T172A/T86R/V148I/V68A/V73E/Y34C/Y58G/Y62H); experiment: Competitive MHC class II binding assay, DQA10101-DQB10501; conditions: positive binding at cutoff 1000 nM; read-out: HLA-DQA10101-DQB10501
DQA10501-DQB10301 = DQA10501-DQB10301 (Homo sapiens, UniProt P01909+P01920); experiment: Competitive MHC class II binding assay, DQA10501-DQB10301
DQA10301-DQB10302 = DQA10301-DQB10302 (Homo sapiens, UniProt P01909+P01920, A209T/A45G/C70Q/D89A/DUP78-78/E183D/E77G/F237L/G63E/H199R/I129T/K197E/L178F/L74F/L98V/Q57E/Q76R/S185I/S97I/T217I/T49S/V73L/Y58L); experiment: Competitive MHC class II binding assay, DQA10301-DQB10302
DPA10103-DPB10402 = target: T2, DPA10103-DPB10402 (Homo sapiens, UniProt P04440+P20036, A65V/A84D/A85E/L207M); experiment: Competitive MHC class II binding assay, DPA10103-DPB10402
T2 sequence (P20036 29-260): T1 sequence (P20036 29-260)
T2 sequence (P04440 30-258 A65V/A84D/A85E): T1 sequence (P04440 30-258 A65V/A84D/A85E/K98E) with E69K

DQA10501-DQB10201 = DQA10501-DQB10201 (Homo sapiens, UniProt P01909+P01920, A45G/A70V/D89A/E106A/E77G/E98D/H199R/L107V/N214S/P84L/P87L/T103K/T109R/T172A/T60S/V78E/V99I/Y58L/Y62S/Y69I/Y79F); experiment: Competitive MHC class II binding assay, DQA10501-DQB10201
DRB1_0401 = DRB1_0401 (Homo sapiens, UniProt P01903+P01911, A100K/A169T/F76Y/I96L/K127E/L162R/M171V/N62H/P40V/Q125Y/R42H/S133A/S149N/S66Y/V115G/V209L/W38E); experiment: Competitive MHC class II binding assay, DRB1_0401
DRB3_0101 = DRB3_0101 (Homo sapiens, UniProt P01903+P79483); experiment: Competitive MHC class II binding assay, DRB3_0101

Row | Compound | IC50 (DPA10103-DPB10201) [nM] | IC50 (DRB1_0802) [nM] | IC50 (DRB1_0901) [nM] | IC50 (DRB1_1302) [nM] | IC50 (DRB5_0101) [nM] | IC50 (DQA10102-DQB10602) [nM] | IC50 (DQA10101-DQB10501) [nM] | IC50 (DQA10501-DQB10301) [nM] | IC50 (DQA10301-DQB10302) [nM] | IC50 (DPA10103-DPB10402) [nM] | IC50 (DQA10501-DQB10201) [nM] | binding to HLA Class II allele DQA10501-DQB10201 (DQA10501-DQB10201; as shown in Table 16a) | IC50 (DRB1_0401) [nM] | IC50 (DRB3_0101) [nM] | binding to HLA Class II allele DRB3_0101 (DRB3_0101; as shown in Table 16a) | binding to HLA Class II allele DRB1_1302 (DRB1_1302; as shown in Table 16a)
1 | LVKGQQYDIKYTWNVPKIAPK [pep-131] | < 1000 | < 1000 | < 1000 | < 1000 | < 1000 |  |  |  |  |  |  |  |  |  |  | 
2 | DNGYGYFAANIDLMMIEE [pep-010] | < 1000 | < 1000 | < 1000 | < 1000 |  | < 1000 | < 1000 | < 1000 | < 1000 | < 1000 | < 1000 | binds to at least the same alleles as peptide 041 | < 1000 | < 1000 | binds to at least the same alleles as peptide 041 | binds to at least the same alleles as peptide 041
3 | CC[C@H](C)[C@H](NC(=O)CNC(=O)[C@@H](NC(=O)[C@@H](NC(=O)[C@@H](NC(=O)[C@H](C)NC(=O)[C@@H](NC(=O)[C@H](C)NC(=O)[C@H](CO)NC(=O)[C@H](Cc1c[nH]cn1)NC(=O)[C@@H](NC(=O)[C@H](CCC(N)=O)NC(=O)[C@H](C)NC(=O)[C@H](CC(C)C)NC(=O)[C@H](C)NC(=O)[C@H](CCC(=O)O)NC(=O)[C@@H](N)CCCNC(=N)N)[C@@H](C)O)[C@@H](C)CC)C(C)C)[C@@H](C)CC)[C@@H](C)CC)C(=O)N[C@@H](CCCCN)C(=O)N[C@@H](CC(=O)O)C(=O)N[C@@H](CC(C)C)C(=O)N[C@@H](CC(=O)O)C(=O)N[C@@H](C)C(=O)O [pep-130] | < 1000 | < 1000 | < 1000 | < 1000 | < 1000 | < 1000 | < 1000 | < 1000 | < 1000 | < 1000 | < 1000 |  |  |  |  | 
4 | HAVNIVGYSNAQGVDYWIVR [pep-058] |  | < 1000 | < 1000 | < 1000 |  | < 1000 | < 1000 | < 1000 |  |  | < 1000 |  | < 1000 | < 1000 |  | 
5 | LVGDNGVLASAIATHAKIRD [pep-110] |  | < 1000 | < 1000 | < 1000 | < 1000 | < 1000 |  | < 1000 |  |  |  |  | < 1000 | < 1000 |  | 
6 | GSGSSWAFSGVAATESAYLA [pep-044] |  |  | < 1000 | < 1000 |  | < 1000 | < 1000 | < 1000 | < 1000 | < 1000 | < 1000 |  | < 1000 |  |  | 
